# Assays:
# [1] = Cyclic voltammetry, oxidation potential; assay type: physicochemical; conditions: acetonitrile, tetrabutyl ammonium perchlorate, platinum electrodes
# Procedure: The cyclic voltammetry measurements were conducted by using acetonitrile as a solvent and tetrabutyl ammonium perchlorate as a supporting electrolyte. Each of a working electrode and a counter electrode was made from platinum. […] […] Therefore, in the compounds represented by the general formulas [Chem. 5] to [Chem. 8], it is preferable that the cyclic structures are formed by R^1 and R^2 and by R^3 and R^4, and this is supported by the result of this example.
# Solubility to chloroform = assay type: physicochemical
# Procedure: In this embodiment, an effect of introducing a substituent other than hydrogen into R^5 and R^6 of the compounds represented by the general formulas [Chem. 5] to [Chem. 8] will be described. […] In contrast, in the case where R^5 and R^6 are trimethylsilyl groups, the solubility to chloroform at 25° C. is 15.4 wt. %. Thus, it is possible to considerably improve the solubility by introducing the substituent into R^5 and R^6.
oxidation potential [1],solubility to chloroform (Solubility to chloroform),SMILES
1.20 V,less than 1 wt. %,"c1cc(-c2scc3c2OCCO3)ccc1-c1scc2c1OCCO2 [Chem. 9, 1,4-di-(3,4-ethylenedioxy-2-thienyl)benzene]"
1.68 V,–,"CCCCCCOc1csc(-c2ccc(-c3scc(OCCCCCC)c3OCCCCCC)cc2)c1OCCCCCC [Chem. 11, 1,4-bis(3,4-dihexyloxy-2-thienyl)benzene]"

# Reference: US20040258954A1, “Conjugated molecule and electroluminescent device thereof and electronic device having the electroluminescent device” (Semiconductor Energy Laboratory Co., Ltd., priority 2003, published 2004)
